From patent US20250320193A1, “OXOISOINDOLINYL SUBSTITUTED PIPERIDINEDIONE DERIVATIVE AND USE THEREOF” (GLUETACS THERAPEUTICS (SHANGHAI) CO., LTD., priority 2022, published 2025)

Tests used:
IKZF1 = IKZF1 (Homo sapiens (Human), UniProt Q13422+Q96SW2); test: Western blot, substrate protein expression in hPBMC: IKZF1; format: cell-based; conditions: hPBMC, compound 500 nM, 24 hours, Western blot
How it was run: (§1)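 hPBMC, 1×10^6 cells/mL, 24 h compound exposure; RIPA lysis, BCA protein assay, SDS-PAGE, NC membrane immunoblot. Densitometry vs internal control → % protein remaining; degradation % = 100% − remaining; DC50 = conc. at 50% of DMSO band signal.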

IKZF3 = IKZF3 (Homo sapiens (Human), UniProt Q96SW2+Q9UKT9); test: Western blot, substrate protein expression in hPBMC: IKZF3; format: cell-based; conditions: hPBMC, compound 500 nM, 24 hours, Western blot
How it was run: as §1

GSPT1 = GSPT1 (Homo sapiens (Human), UniProt P15170+Q96SW2); test: Western blot, substrate protein expression in hPBMC: GSPT1; format: cell-based; conditions: hPBMC, compound 500 nM, 24 hours, Western blot
How it was run: as §1

[1] = target: human Cereblon WT GST-tagged protein (Homo sapiens (Human), UniProt Q96SW2); test: CRBN-binding affinity, HTRF (CEREBLON BINDING kit, CISBIO); conditions: HTRF inhibitory activity
How it was run: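 Compounds were mixed with GST-tagged human Cereblon WT protein, then with Thalidomide-Red tracer and GST Eu antibody, and binding was read by HTRF. Inhibition rate was calculated from 620 nm emission relative to blank control wells (no protein) and solvent control wells.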

Sequence of IKZF1 (Q13422 whole entry): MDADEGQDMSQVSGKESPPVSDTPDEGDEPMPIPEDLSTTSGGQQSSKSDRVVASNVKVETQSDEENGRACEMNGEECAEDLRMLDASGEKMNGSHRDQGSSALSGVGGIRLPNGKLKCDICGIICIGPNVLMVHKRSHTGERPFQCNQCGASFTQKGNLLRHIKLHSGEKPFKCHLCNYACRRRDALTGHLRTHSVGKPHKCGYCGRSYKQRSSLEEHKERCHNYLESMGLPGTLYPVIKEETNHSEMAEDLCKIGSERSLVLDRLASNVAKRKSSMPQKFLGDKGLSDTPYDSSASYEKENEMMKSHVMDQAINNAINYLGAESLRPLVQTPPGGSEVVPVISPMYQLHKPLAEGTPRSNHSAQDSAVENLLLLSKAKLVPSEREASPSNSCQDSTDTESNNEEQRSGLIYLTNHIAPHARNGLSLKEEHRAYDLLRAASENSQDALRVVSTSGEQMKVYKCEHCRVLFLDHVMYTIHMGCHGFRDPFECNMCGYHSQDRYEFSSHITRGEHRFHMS
Sequence of IKZF1 (Q96SW2 whole entry): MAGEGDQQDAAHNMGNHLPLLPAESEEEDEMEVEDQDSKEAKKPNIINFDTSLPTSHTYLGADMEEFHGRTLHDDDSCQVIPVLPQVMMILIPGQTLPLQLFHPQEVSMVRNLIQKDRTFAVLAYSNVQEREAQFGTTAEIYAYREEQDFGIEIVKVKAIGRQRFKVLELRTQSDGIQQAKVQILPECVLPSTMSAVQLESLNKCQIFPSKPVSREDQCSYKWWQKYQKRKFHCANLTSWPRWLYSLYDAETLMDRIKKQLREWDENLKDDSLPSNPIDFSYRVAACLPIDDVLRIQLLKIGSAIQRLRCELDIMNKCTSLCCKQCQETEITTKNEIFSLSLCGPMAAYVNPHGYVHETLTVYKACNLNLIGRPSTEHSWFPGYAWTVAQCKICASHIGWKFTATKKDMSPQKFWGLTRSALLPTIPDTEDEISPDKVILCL
Sequence of IKZF1 (Q16531 whole entry partner): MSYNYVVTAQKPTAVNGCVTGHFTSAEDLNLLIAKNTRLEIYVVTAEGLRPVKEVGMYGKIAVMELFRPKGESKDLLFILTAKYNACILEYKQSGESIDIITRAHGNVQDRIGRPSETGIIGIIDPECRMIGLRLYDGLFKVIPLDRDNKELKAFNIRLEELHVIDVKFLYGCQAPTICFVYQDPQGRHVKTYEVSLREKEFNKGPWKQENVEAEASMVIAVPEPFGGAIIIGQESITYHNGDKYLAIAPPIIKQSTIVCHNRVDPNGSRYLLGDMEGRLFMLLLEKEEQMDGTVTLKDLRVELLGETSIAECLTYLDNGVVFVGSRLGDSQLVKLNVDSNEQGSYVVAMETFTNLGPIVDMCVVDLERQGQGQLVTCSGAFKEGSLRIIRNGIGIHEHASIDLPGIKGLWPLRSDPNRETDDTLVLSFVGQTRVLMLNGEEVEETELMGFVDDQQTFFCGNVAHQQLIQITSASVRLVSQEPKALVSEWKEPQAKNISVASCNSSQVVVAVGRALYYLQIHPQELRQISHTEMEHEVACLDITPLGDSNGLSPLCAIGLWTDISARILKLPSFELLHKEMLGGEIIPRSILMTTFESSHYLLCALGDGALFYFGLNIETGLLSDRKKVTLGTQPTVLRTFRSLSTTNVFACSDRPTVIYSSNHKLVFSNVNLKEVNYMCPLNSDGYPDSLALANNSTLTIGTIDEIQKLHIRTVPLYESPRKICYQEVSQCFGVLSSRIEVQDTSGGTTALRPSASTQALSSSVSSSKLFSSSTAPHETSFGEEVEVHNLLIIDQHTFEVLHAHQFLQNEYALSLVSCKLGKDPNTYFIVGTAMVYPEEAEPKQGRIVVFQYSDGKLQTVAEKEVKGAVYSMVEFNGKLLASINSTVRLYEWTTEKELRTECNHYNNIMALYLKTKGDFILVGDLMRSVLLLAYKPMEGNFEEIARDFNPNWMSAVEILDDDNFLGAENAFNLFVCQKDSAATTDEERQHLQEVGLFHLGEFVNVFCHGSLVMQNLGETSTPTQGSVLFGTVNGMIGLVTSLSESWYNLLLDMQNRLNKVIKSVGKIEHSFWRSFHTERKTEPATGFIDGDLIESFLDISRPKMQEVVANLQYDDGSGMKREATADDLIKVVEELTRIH
Sequence of GSPT1 (P15170 whole entry): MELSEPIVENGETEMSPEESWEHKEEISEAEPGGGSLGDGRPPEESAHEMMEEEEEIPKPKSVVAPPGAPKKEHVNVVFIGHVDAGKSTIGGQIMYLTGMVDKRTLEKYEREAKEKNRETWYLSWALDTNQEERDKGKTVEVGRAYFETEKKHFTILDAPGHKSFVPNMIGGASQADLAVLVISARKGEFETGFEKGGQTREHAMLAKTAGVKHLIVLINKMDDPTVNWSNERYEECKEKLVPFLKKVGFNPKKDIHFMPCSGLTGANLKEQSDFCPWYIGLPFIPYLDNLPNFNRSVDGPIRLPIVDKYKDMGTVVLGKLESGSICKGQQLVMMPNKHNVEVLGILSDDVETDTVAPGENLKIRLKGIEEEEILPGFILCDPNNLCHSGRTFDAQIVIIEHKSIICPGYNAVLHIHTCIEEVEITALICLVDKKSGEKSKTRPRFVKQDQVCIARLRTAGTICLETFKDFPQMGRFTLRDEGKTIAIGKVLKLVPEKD
Sequence of GSPT1 (Q96SW2 whole entry): as the sequence (Q96SW2 whole entry) above
Sequence of GSPT1 (Q16531 whole entry partner): as the sequence (Q16531 whole entry partner) above
Sequence of IKZF3 (Q9UKT9 whole entry): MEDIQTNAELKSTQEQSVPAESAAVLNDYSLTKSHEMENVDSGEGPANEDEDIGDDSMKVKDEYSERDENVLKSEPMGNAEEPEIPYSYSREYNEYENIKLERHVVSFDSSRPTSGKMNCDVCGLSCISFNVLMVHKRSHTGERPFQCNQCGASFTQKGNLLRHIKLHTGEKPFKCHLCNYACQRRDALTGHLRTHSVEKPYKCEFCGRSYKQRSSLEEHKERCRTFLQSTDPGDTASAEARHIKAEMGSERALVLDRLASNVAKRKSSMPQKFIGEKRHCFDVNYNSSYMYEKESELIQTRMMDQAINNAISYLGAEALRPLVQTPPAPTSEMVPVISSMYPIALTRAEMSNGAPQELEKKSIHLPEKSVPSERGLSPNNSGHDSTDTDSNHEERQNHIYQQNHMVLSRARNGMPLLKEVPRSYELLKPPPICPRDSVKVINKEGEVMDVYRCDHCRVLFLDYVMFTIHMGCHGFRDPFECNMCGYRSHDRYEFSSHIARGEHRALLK
Sequence of IKZF3 (Q96SW2 whole entry): as the sequence (Q96SW2 whole entry) above
Sequence of IKZF3 (Q16531 whole entry partner): as the sequence (Q16531 whole entry partner) above
Sequence of human Cereblon WT GST-tagged protein (Q96SW2 whole entry): as the sequence (Q96SW2 whole entry) above

Compound: C[C@@H]1CN(C(c2ccccc2)c2ccccc2)CCN1Cc1ccc2c(c1)CN(C1CCC(=O)NC1=O)C2=O (stereo partly drawn) [GT-03571, 3-(5-(((R)-4-benzhydryl-2-methylpiperazin-1-yl)methyl)-1-oxoisoindolin-2-yl)piperidine-2,6-dione]
- substrate protein remaining % IKZF1 (IKZF1): B (B represents substrate protein remaining % > 50%)
- substrate protein remaining % IKZF3 (IKZF3): B (B represents substrate protein remaining % > 50%)
- substrate protein remaining % GSPT1 (GSPT1): A (A represents 0% ≤ substrate protein remaining % ≤ 50%)
- IC50 [1]: < 500 nM

Compound: C[C@@H]1CN(C(c2ccccc2)c2ccccc2)CCN1Cc1ccc2c(c1F)CN(C1CCC(=O)NC1=O)C2=O (stereo partly drawn) [GT-03574, 3-(5-(((R)-4-benzhydryl-2-methylpiperazin-1-yl)methyl)-4-fluoro-1-oxoisoindolin-2-yl)piperidine-2,6-dione]
- substrate protein remaining % IKZF1 (IKZF1): B (B represents substrate protein remaining % > 50%)
- substrate protein remaining % IKZF3 (IKZF3): B (B represents substrate protein remaining % > 50%)
- substrate protein remaining % GSPT1 (GSPT1): A (A represents 0% ≤ substrate protein remaining % ≤ 50%)
- IC50 [1]: 500 to 1000 nM

Compound: O=C1CCC(N2Cc3cc(CN4C5CC4CN(C(c4ccccc4)c4ccccc4)C5)cc(F)c3C2=O)C(=O)N1 (stereo not shown) [GT-03575, 3-(5-((3-benzhydryl-3,6-diazabicyclo[3.1.1]heptan-6-yl)methyl)-7-fluoro-1-oxoisoindolin-2-yl)piperidine-2,6-dione]
- substrate protein remaining % IKZF1 (IKZF1): B (B represents substrate protein remaining % > 50%)
- substrate protein remaining % IKZF3 (IKZF3): B (B represents substrate protein remaining % > 50%)
- substrate protein remaining % GSPT1 (GSPT1): A (A represents 0% ≤ substrate protein remaining % ≤ 50%)
- IC50 [1]: 500 to 1000 nM

Compound: O=C1CCC(N2Cc3c(CN4CCN(C(c5ccc(F)cc5)c5ccc(F)cc5)CC4)cccc3C2=O)C(=O)N1 (stereo not shown) [GT-03647, 3-(4-((4-(bis(4-fluorophenyl)methyl)piperazin-1-yl)methyl)-1-oxoisoindolin-2-yl)piperidine-2,6-dione]
- substrate protein remaining % IKZF1 (IKZF1): B (B represents substrate protein remaining % > 50%)
- substrate protein remaining % IKZF3 (IKZF3): B (B represents substrate protein remaining % > 50%)
- substrate protein remaining % GSPT1 (GSPT1): A (A represents 0% ≤ substrate protein remaining % ≤ 50%)
- IC50 [1]: 500 to 1000 nM

Compound: O=C1CCC(N2Cc3cc(CN4C[C@@H]5C[C@H]4CN5C(c4ccccc4)c4ccccc4)ccc3C2=O)C(=O)N1 (stereo partly drawn) [GT-03721, 3-(5-(((1S,4S)-5-benzhydryl-2,5-diazabicyclo[2.2.1]heptan-2-yl)methyl)-1-oxoisoindolin-2-yl)piperidine-2,6-dione]
- substrate protein remaining % IKZF1 (IKZF1): B (B represents substrate protein remaining % > 50%)
- substrate protein remaining % IKZF3 (IKZF3): A (A represents 0% ≤ substrate protein remaining % ≤ 50%)
- substrate protein remaining % GSPT1 (GSPT1): A (A represents 0% ≤ substrate protein remaining % ≤ 50%)
- IC50 [1]: < 500 nM

Compound: O=C1CCC(N2Cc3cc(CN4CC5CCC(C4)N5C(c4ccccc4)c4ccccc4)ccc3C2=O)C(=O)N1 (stereo not shown) [GT-03722, 3-(5-((8-benzhydryl-3,8-diazabicyclo[3.2.1]octan-3-yl)methyl)-1-oxoisoindolin-2-yl)piperidine-2,6-dione]
- substrate protein remaining % IKZF1 (IKZF1): A (A represents 0% ≤ substrate protein remaining % ≤ 50%)
- substrate protein remaining % IKZF3 (IKZF3): A (A represents 0% ≤ substrate protein remaining % ≤ 50%)
- substrate protein remaining % GSPT1 (GSPT1): A (A represents 0% ≤ substrate protein remaining % ≤ 50%)
- IC50 [1]: < 500 nM

Compound: CC1CN(C(c2ccccc2)c2ccccc2)CC(C)N1Cc1ccc2c(c1)CN(C1CCC(=O)NC1=O)C2=O (stereo not shown) [GT-03723, 3-(5-((4-benzhydryl-2,6-dimethylpiperazin-1-yl)methyl)-1-oxoisoindolin-2-yl)piperidine-2,6-dione]
- substrate protein remaining % IKZF1 (IKZF1): B (B represents substrate protein remaining % > 50%)
- substrate protein remaining % IKZF3 (IKZF3): B (B represents substrate protein remaining % > 50%)
- substrate protein remaining % GSPT1 (GSPT1): A (A represents 0% ≤ substrate protein remaining % ≤ 50%)
- IC50 [1]: 500 to 1000 nM

Compound: O=C1CCC(N2Cc3c(ccc(CN4CC5CCC(C4)N5C(c4ccccc4)c4ccccc4)c3F)C2=O)C(=O)N1 (stereo not shown) [GT-03725, 3-(5-((8-benzhydryl-3,8-diazabicyclo[3.2.1]octan-3-yl)methyl)-4-fluoro-1-oxoisoindolin-2-yl)piperidine-2,6-dione]
- substrate protein remaining % IKZF1 (IKZF1): A (A represents 0% ≤ substrate protein remaining % ≤ 50%)
- substrate protein remaining % IKZF3 (IKZF3): A (A represents 0% ≤ substrate protein remaining % ≤ 50%)
- substrate protein remaining % GSPT1 (GSPT1): A (A represents 0% ≤ substrate protein remaining % ≤ 50%)
- IC50 [1]: 500 to 1000 nM

Compound: CC1CN(C(c2ccccc2)c2ccccc2)CC(C)N1Cc1ccc2c(c1F)CN(C1CCC(=O)NC1=O)C2=O (stereo not shown) [GT-03726, 3-(5-((4-benzhydryl-2,6-dimethylpiperazin-1-yl)methyl)-4-fluoro-1-oxoisoindolin-2-yl)piperidine-2,6-dione]
- substrate protein remaining % IKZF1 (IKZF1): B (B represents substrate protein remaining % > 50%)
- substrate protein remaining % IKZF3 (IKZF3): B (B represents substrate protein remaining % > 50%)
- substrate protein remaining % GSPT1 (GSPT1): A (A represents 0% ≤ substrate protein remaining % ≤ 50%)
- IC50 [1]: < 500 nM

Compound: O=C1CCC(N2Cc3c(CN4CCN(C(c5ccccc5)c5ccccn5)CC4)cccc3C2=O)C(=O)N1 (stereo not shown) [GT-03836, 3-(1-oxo-4-((4-(phenyl(pyridin-2-yl)methyl)piperazin-1-yl)methyl)isoindolin-2-yl)piperidine-2,6-dione]
- substrate protein remaining % IKZF1 (IKZF1): B (B represents substrate protein remaining % > 50%)
- substrate protein remaining % IKZF3 (IKZF3): B (B represents substrate protein remaining % > 50%)
- substrate protein remaining % GSPT1 (GSPT1): A (A represents 0% ≤ substrate protein remaining % ≤ 50%)
- IC50 [1]: 500 to 1000 nM

Compound: O=C1CCC(N2Cc3c(ccc(CN4C5CCC4CN(C(c4ccccc4)c4ccccc4)C5)c3F)C2=O)C(=O)N1 (stereo not shown) [GT-03838, 3-(5-((3-benzhydryl-3,8-diazabicyclo[3.2.1]octan-8-yl)methyl)-4-fluoro-1-oxoisoindolin-2-yl)piperidine-2,6-dione]
- substrate protein remaining % IKZF1 (IKZF1): A (A represents 0% ≤ substrate protein remaining % ≤ 50%)
- substrate protein remaining % IKZF3 (IKZF3): A (A represents 0% ≤ substrate protein remaining % ≤ 50%)
- substrate protein remaining % GSPT1 (GSPT1): A (A represents 0% ≤ substrate protein remaining % ≤ 50%)
- IC50 [1]: 500 to 1000 nM

Compound: CC1CN(Cc2ccc3c(c2)CN(C2CCC(=O)NC2=O)C3=O)CC(C)N1C(c1ccccc1)c1ccccc1 (stereo not shown) [GT-03872, 3-(5-((4-benzhydryl-3,5-dimethylpiperazin-1-yl)methyl)-1-oxoisoindolin-2-yl)piperidine-2,6-dione]
- substrate protein remaining % IKZF1 (IKZF1): B (B represents substrate protein remaining % > 50%)
- substrate protein remaining % IKZF3 (IKZF3): A (A represents 0% ≤ substrate protein remaining % ≤ 50%)
- substrate protein remaining % GSPT1 (GSPT1): A (A represents 0% ≤ substrate protein remaining % ≤ 50%)
- IC50 [1]: 1000 to 1900 nM

Compound: CC1CN(C(c2ccccc2)c2ccccc2)CC(C)N1Cc1cc2c(cc1F)C(=O)N(C1CCC(=O)NC1=O)C2 (stereo not shown) [GT-03873, 3-(5-((4-benzhydryl-2,6-dimethylpiperazin-1-yl)methyl)-6-fluoro-1-oxoisoindolin-2-yl)piperidine-2,6-dione]
- substrate protein remaining % IKZF1 (IKZF1): A (A represents 0% ≤ substrate protein remaining % ≤ 50%)
- substrate protein remaining % IKZF3 (IKZF3): B (B represents substrate protein remaining % > 50%)
- substrate protein remaining % GSPT1 (GSPT1): A (A represents 0% ≤ substrate protein remaining % ≤ 50%)
- IC50 [1]: < 500 nM
